Here are results for six molecules from patent US8133871B2, “Dihydropseudoerythromycin derivatives” (The Kitasato Institute, priority 2005, dated 2012).

One test relates to THP-1 cells. The experiment in a line: THP-1 differentiation induction-promoting activity. Type of test: cell-based. The following applies: Homo sapiens, THP-1; lowest concentration necessary to show 50% activity relative to the activity value of erythromycin A at 100 μM; PMA 1-2 μM, 72-96 hr. The procedure:
As one index of the anti-inflammatory action of the compound of the present invention, the differentiation induction-promoting activity of THP-1 cell was measured. The measurement was performed as shown below.
THP-1 cells (ATCC No. TIB-202) were adjusted to a concentration of 2×10^5 cells/ml with a medium (RPMI 1640), PMA was added thereto to a final concentration of 1-2 μM, and the mixture was dispensed to each well of a 96 well plate by 100 μl. A solution (100 μl) containing a test substance was adjusted to an appropriate concentration with the medium and added to each well. The mixture was stirred by gently shaking the plate, and incubated under 37° C., 5% CO2 conditions for 72-96 hr. Each well was washed with PBS, a medium containing the viable cell measurement reagent SF (Nacalai Tesque) was added at 100 μl/well and the mixture was incubated under the conditions of 37° C., 5% CO2 for 3-5 hr. The absorbance was measured with a plate reader.
In the Table, the activity value is the lowest concentration necessary for the test compound to show a 50% activity value relative to the activity value of erythromycin A at 100 μM in this experiment.
THP-1 differentiation induction-promoting activity: The lowest concentration necessary for each compound to show 50% activity relative to the activity value of erythromycin A at 100 μM.

A further test concerns A. calcoaceticus IFO2552. The experiment in a line: antibacterial activity, MIC (NCCLS method). Type of test: cell-based. Conditions: Acinetobacter calcoaceticus. On the procedure:
(§1) The antibacterial activity of the compound of the present invention and erythromycin were measured according to the antibacterial sensitivity measurement method of the US National Committee for Clinical Laboratory Standards (NCCLS). The values of minimum inhibitory concentration (MIC) (μg/ml) of each compound against bacteria are shown therein.

The subject of a further test is E. aerogen NCTC10006. Nature of the test: antibacterial activity, MIC (NCCLS method). Type of test: cell-based. The procedure: as §1
A further test deals with E. coli NIHJ JC-2. Nature of the test: antibacterial activity, MIC (NCCLS method). Type of test: cell-based. Conditions: Escherichia coli, NIHJJC2. On the procedure:
as §1

The next test has as its system E. faecalis ATCC21212. Nature of the test: antibacterial activity, MIC (NCCLS method). The following applies: Enterococcus faecalis. Type of test: cell-based. The procedure:
as §1

The test system of the next test is K. pneumoniae NCTN9632. The experiment in a line: antibacterial activity, MIC (NCCLS method). Type of test: cell-based. The following applies: Klebsiella pneumoniae. The procedure:
as §1

In the next test the test system is M. luteus ATCC9341. The experiment in a line: antibacterial activity, MIC (NCCLS method). Type of test: cell-based. The following applies: Micrococcus luteus. On the procedure: as §1
For the next test, the system named is S. aureus 8325 (pEP2104). Nature of the test: antibacterial activity, MIC (NCCLS method). Type of test: cell-based. Conditions: Staphylococcus aureus. The procedure: as §1
The subject of a further test is S. aureus FDA209P. The experiment in a line: antibacterial activity, MIC (NCCLS method). Type of test: cell-based. Conditions: Staphylococcus aureus. The procedure:
as §1

Another test concerns S. aureus Smith. Nature of the test: antibacterial activity, MIC (NCCLS method). Type of test: cell-based. Conditions: Staphylococcus aureus. On the procedure:
as §1

For another test, the system named is S. epidermidis IFO12648. The experiment in a line: antibacterial activity, MIC (NCCLS method). Type of test: cell-based. Conditions: Staphylococcus epidermidis. On the procedure: as §1
The test system of a further test is S. marcescens IFO12648. The experiment in a line: antibacterial activity, MIC (NCCLS method). Type of test: cell-based. Conditions: Serratia marcescens. The procedure:
as §1

The test system of test [1] is trinitrobenzene sulfonate (TNBS)-induced colitis. Nature of the test: TNBS-induced colitis in rats, damage of the large intestine scored by the method of Wallace et al. The following applies: rat TNBS colitis, oral, control 4.27 ± 0.38. Type of test: in vivo. The procedure: As an index of the treatment effect of the compound of the present invention on ulcerative colitis and Crohn's disease, an action on trinitrobenzene sulfonate (hereinafter to be indicated as TNBS)-induced colitis was examined using rats. Using 8-week-old male SD rats under pentobarbital anesthesia, TNBS solution was injected into the rectum of animals after fasting for 24 hr or longer and abstaining from water for 5 hr or longer. After injection, a silicone stopper was inserted into the anus to perform a treatment for 3.5-4 hr, whereby a colitis model was prepared. Two days after TNBS administration, model animals were selected based on the fecal occult blood score (fecal occult blood slide 5 shionogi II, Shionogi & Co. Ltd.), body weight and body weight changes, feeding condition, observation score of around anus and bleeding. A test drug was orally administered to the model animals two times a day for 6 days. On the next day of the final drug administration, the large intestine (about 15 cm from the anus) was removed after decapitation and exsanguination, and the level of damage was scored by the method of Wallace et al. (Wallace, J. L. et al, Inhibition of leukotriene synthesis markedly accelerates healing in a rat model of inflammatory bowel disease. Gastroenterology 96, 2936 (1989)), based on which the efficacy was evaluated.

The mark [2] stands for this setting: M. luteus ATCC9341 2002.1.31, read-out: MIC.
Where [3] appears, read: dose 10 × 2 (mg/kg)/day for 6 days.
Where [4] appears, read: dose 30 × 2 (mg/kg)/day for 6 days.
The mark [5] stands for this setting: A. calcoaceticus IFO2552 2002.2.1, read-out: MIC.
Setting [6] is: E. coli NIHJ JC-2 2002.1.31, read-out: MIC.
Where [7] appears, read: E. faecalis ATCC21212 2002.1.31, read-out: MIC.
[8] abbreviates: K. pneumoniae NCTN9632 2002.1.31, read-out: MIC.
Where [9] appears, read: S. aureus FDA209P 2002.1.31, read-out: MIC.
Where [10] appears, read: S. aureus Smith 2002.1.31, read-out: MIC.
The mark [11] stands for this setting: S. epidermidis IFO12648 2002.1.31, read-out: MIC.

Converted amounts (≈) assume the structure as drawn. Like-named read-outs stand apart in the source and are kept apart here.

For orientation: minimal effective concentration means the smallest amount tested that counted as effective. Read a low minimal effective concentration as an effect from little substance. Usually MIC stands for the lowest concentration found to suppress growth.

In the test on THP-1 cells, `CC[C@@H](O)[C@@](C)(O)[C@@H]1OC(=O)[C@H](C)[C@@H](O[C@H]2CC(C)(OC)[C@@H](O)C(C)O2)[C@H](C)[C@@H](O[C@@H]2OC(C)CC(N(C)C)C2O)[C@@]2(C)CC(C)C(O2)[C@@H]1C` (stereo partly shown) [EM900, 9-dihydro-pseudoerythromycin A 6,9-epoxide] gave a minimal effective concentration of 30 µM. The MIC in the test with A. calcoaceticus IFO2552 (IFO2552) was over 128 µg/mL; with E. aerogen NCTC10006, over 128 µg/mL; against E. coli NIHJ JC-2 it was over 128 µg/mL; against E. faecalis ATCC21212 (ATCC21212), over 128 µg/mL; in the test on K. pneumoniae NCTN9632 (NCTN9632), over 128 µg/mL; in the test with M. luteus ATCC9341 (setting [2]) it was 128 µg/mL (≈ 178 µM). Also, the MIC against S. aureus 8325 (pEP2104), in the test with S. aureus FDA209P (FDA209P), against S. aureus Smith, in the test on S. epidermidis IFO12648 (IFO12648) and with S. marcescens IFO12648 (IFO12648) was over 128 µg/mL throughout.

In the test with THP-1 cells, `CC[C@@H](O)[C@@](C)(O)[C@@H]1OC(=O)[C@H](C)[C@@H](O[C@H]2CC(C)(OC)[C@@H](O)C(C)O2)[C@H](C)[C@@H](O[C@@H]2OC(C)CC(NC)C2O)[C@@]2(C)CC(C)C(O2)[C@@H]1C` (stereo partly shown) [EM901, de(3′-N-methyl)-9-dihydro-pseudoerythromycin A 6,9-epoxide] had a minimal effective concentration of 30 µM. Moreover, the MIC in the test with A. calcoaceticus IFO2552 (IFO2552), against E. aerogen NCTC10006, against E. coli NIHJ JC-2, in the test on E. faecalis ATCC21212 (ATCC21212), in the test with K. pneumoniae NCTN9632 (NCTN9632) and with M. luteus ATCC9341 (ATCC9341) was over 128 µg/mL each time. For the same molecule, the MIC in the test with S. aureus 8325 (pEP2104), against S. aureus FDA209P (FDA209P), in the test on S. aureus Smith, with S. epidermidis IFO12648 (IFO12648) and in the test on S. marcescens IFO12648 (IFO12648) was over 128 µg/mL throughout.

Regarding `CC[C@@H](O)[C@@](C)(O)[C@@H]1OC(=O)[C@H](C)[C@@H](O[C@H]2CC(C)(OC)[C@@H](O)C(C)O2)[C@H](C)[C@H](O[C@@H]2OC(C)CC(N(C)Cc3ccc(Cl)cc3)C2O)[C@@]2(C)CC(C)C(O2)[C@@H]1C` (stereo partly shown) [EM905, de(3′-N-methyl)-3′-N-(p-chlorobenzyl)-9-dihydro-pseudoerythromycin A 6,9-epoxide], the minimal effective concentration with THP-1 cells is 3 µM. In addition, the “Inflammation score in ulcer” value in [1] (setting [3]) is 3.29 ± 0.22; in test [1] (setting [4]) it was 2.67 ± 0.40. Besides, the minimal inhibitory concentration (MIC) in the test on A. calcoaceticus IFO2552 (IFO2552), in the test on E. aerogen NCTC10006, against E. coli NIHJ JC-2, in the test on E. faecalis ATCC21212 (ATCC21212), against K. pneumoniae NCTN9632 (NCTN9632) and in the test on M. luteus ATCC9341 (ATCC9341) was over 128 µg/mL throughout. Also, the MIC in the test on S. aureus 8325 (pEP2104), against S. aureus FDA209P (FDA209P), in the test with S. aureus Smith, against S. epidermidis IFO12648 (IFO12648) and against S. marcescens IFO12648 (IFO12648) was over 128 µg/mL in each case.

`CC[C@@H](O)[C@@](C)(O)[C@@H]1OC(=O)[C@H](C)[C@@H](O[C@H]2CC(C)(OC)[C@@H](O)C(C)O2)[C@H](C)[C@@H](O[C@@H]2OC(C)CC(N3CCOCC3)C2O)[C@]2(C)CC(C)C(O2)[C@@H]1C` (stereo partly shown) [EM914, de(3′-dimethylamino)-3′-morpholino-9-dihydro-pseudoerythromycin A 6,9-epoxide]: the minimal effective concentration in the test on THP-1 cells was 100 µM. Further, the “Inflammation score in ulcer” value in test [1] (setting [3]) is recorded as 2.93 ± 0.41; in test [1] (setting [4]) it was 2.69 ± 0.33. Also, the MIC in the test on A. calcoaceticus IFO2552 (IFO2552), against E. aerogen NCTC10006, against E. coli NIHJ JC-2, in the test with E. faecalis ATCC21212 (ATCC21212), with K. pneumoniae NCTN9632 (NCTN9632) and in the test with S. aureus 8325 (pEP2104) was over 128 µg/mL each time. The MIC against S. aureus FDA209P (FDA209P), against S. aureus Smith and against S. marcescens IFO12648 (IFO12648) was over 128 µg/mL throughout.

As for `CC[C@H]1OC(=O)O[C@@]1(C)[C@@H]1OC(=O)[C@H](C)C(=O)[C@H](C)[C@@H](O[C@@H]2OC(C)CC(N(C)Cc3ccc(Cl)cc3)C2O)[C@]2(C)CC(C)C(O2)[C@@H]1C` (stereo partly shown) [EM939, de(3′-N-methyl)-3′-N-(p-chlorobenzyl)-de(3-O-cladinosyl)-9-dihydro-3-keto-pseudoerythromycin A 6,9-epoxide 12,13-carbonate], in the test with THP-1 cells, the minimal effective concentration was determined as 3 µM. The minimum inhibitory concentration (MIC) was over 64 µg/mL in the test on A. calcoaceticus IFO2552 (setting [5]); over 64 µg/mL in the test with E. aerogen NCTC10006 (E. aerogen NCTC10006 2002.2.1, read-out: MIC); over 64 µg/mL with E. coli NIHJ JC-2 (setting [6]); over 64 µg/mL with E. faecalis ATCC21212 (setting [7]); over 64 µg/mL in the test on K. pneumoniae NCTN9632 (setting [8]); over 64 µg/mL with M. luteus ATCC9341 (setting [2]). In addition, the MIC in the test on S. aureus 8325 (pEP2104) was over 64 µg/mL; in the test with S. aureus FDA209P (setting [9]), over 64 µg/mL; in the test with S. aureus Smith (setting [10]) it was over 64 µg/mL; in the test with S. epidermidis IFO12648 (setting [11]) it was over 64 µg/mL; with S. marcescens IFO12648 (S. marcescens IFO12648 2002.2.1, read-out: MIC), over 64 µg/mL.

As to `CC[C@H]1OC(=O)[C@H](C)[C@@H](O[C@H]2C[C@@](C)(OC)[C@@H](O)[C@H](C)O2)[C@H](C)[C@@H](O[C@@H]2O[C@H](C)C[C@H](N(C)C)[C@H]2O)[C@](C)(O)C[C@@H](C)C(=O)[C@H](C)[C@@H](O)[C@]1(C)O` [erythromycin], the minimum inhibitory concentration (MIC) is 4 µg/mL (≈ 5.45 µM) in the test on A. calcoaceticus IFO2552 (setting [5]); 128 µg/mL (≈ 174 µM) against E. aerogen NCTC10006; 64 µg/mL (≈ 87.2 µM) with E. coli NIHJ JC-2 (setting [6]); 1 µg/mL (≈ 1.36 µM) with E. faecalis ATCC21212 (setting [7]); 32 µg/mL (≈ 43.6 µM) with K. pneumoniae NCTN9632 (setting [8]); at most 0.5 µg/mL in the test on M. luteus ATCC9341 (setting [2]). The MIC is 64 µg/mL (≈ 87.2 µM) with S. aureus 8325 (pEP2104); at most 0.5 µg/mL in the test on S. aureus FDA209P (setting [9]); at most 0.5 µg/mL with S. aureus Smith (setting [10]); at most 0.5 µg/mL in the test on S. epidermidis IFO12648 (setting [11]); 128 µg/mL (≈ 174 µM) against S. marcescens IFO12648 (IFO12648).
